# According to publication PMC9654571, “Water-Soluble Truncated Fatty Acid–Porphyrin Conjugates Provide Photo-Sensitizer Activity for Photodynamic Therapy in Malignant Mesothelioma” (Cancers, 2022):
# Like-named read-outs stand apart in the source and are kept apart here. Marks after values point to notes of the source that are not given here.
# Legend:
# [1] = WST-8 cell viability assay after PDT, MSTO-211H; format: cell-based, human; conditions: human, MSTO-211H cells, dark; for viability at 48 h, 5 μg/mL: read-out: cell viability relative to untreated control
# Experimental: (§1) Porphyrin PS stock solutions 4, 5, and 6 (Scheme 1) were prepared by dissolving a 5 mg aliquot in 500 μL of 1 M NaOH. This was added to 9.5 mL of complete media to prepare a 500 μg/mL stock solution. Stock solutions were filter sterilized using a Millipore PES membrane filter (Merck, Watford, UK). Working solutions were prepared immediately before PDT experiments and consisted of six treatments: an untreated control, vehicle control, and four porphyrin concentrations (5, 10, 15, and 20 μg/mL).
# (§2) Cells were detached using a trypsin/EDTA solution (Lonza). Trypan blue (0.4% v/v) exclusion was used to count viable cells before seeded into 96-well plates (Nunc) at a density of 5 × 10^3 cells per well in 200 μL of complete RPMI. Cell culture plates were seeded approximately 24 h before PDT. Media was aspirated and replaced with equal volumes of the respective PS treatment. For the purpose of background subtraction, PS treatments were also added to wells without cells. Following 3 h of incubation (37 °C, 5% CO2:95% air), plates were irradiated for 15 min on a 15 W light box (UVP, Cambridge, UK). Experiments performed parallel to dark-treated control plates.
# (§3) Cell viability was assessed by the colorimetric WST-8 assay. […] The plates were incubated for 3 h (37 °C, 5% CO2:95% air) and then analyzed at 450 nm using a Clariostar Plate Reader (BMG Labtech, Ortenberg, Germany). Corrected absorbance was calculated in each case by subtraction of the media only controls. Finally, percentage cell viability was expressed relative to untreated control values.
# MSTO-211H cells [2] = experiment: WST-8 cell viability assay after PDT, MSTO-211H; format: cell-based, human; conditions: Homo sapiens, 5 μg/mL, light, 48 h, read-out: cell viability relative to untreated control
# Experimental: as §1, §2, §3
# [3] = WST-8 cell viability assay after PDT, NCI-H28; format: cell-based, human; conditions: human, NCI-H28 cells, NCI-H28, 5 μg/mL, dark, read-out: cell viability relative to untreated control
# Experimental: as §1
# as §2, with “Experiments performed parallel to dark-treated control plates.” left out
# as §3, with “Finally, percentage cell viability was expressed relative to untreated control values.” left out
# NCI-H28 cells [4] = experiment: WST-8 cell viability assay after PDT, NCI-H28; format: cell-based, human; conditions: Homo sapiens; NCI-H28, 5 μg/mL, light, 48 h; read-out: cell viability relative to untreated control
# Experimental: as §1
# as §2, with “Experiments performed parallel to dark-treated control plates.” left out
# as §3, with “Finally, percentage cell viability was expressed relative to untreated control values.” left out
# [5] = WST-8 cell viability assay after PDT, Met-5a; format: cell-based; conditions: human, Met-5a cells, light, read-out: cell viability relative to untreated control
# Experimental: as §1, §2
# Cell viability was assessed by the colorimetric WST-8 assay. Following 24 h of incubation (37 °C, 5% CO2:95% air), 10 μL of WST-8 was added to each cell-containing well of the 96-well plates. The plates were incubated for 3 h (37 °C, 5% CO2:95% air) and then analyzed at 450 nm using a Clariostar Plate Reader (BMG Labtech, Ortenberg, Germany). Corrected absorbance was calculated in each case by subtraction of the media only controls. Finally, percentage cell viability was expressed relative to untreated control values.
# [6] = Annexin V-FITC/PI cell death analysis by flow cytometry, MSTO-211H; format: cell-based, human; conditions: human, MSTO-211H cells, dark, 48 h, read-out: viable cells
# Experimental: (§4) Cells were harvested in accordance with methods previously described and seeded into 24-well plates (Nunc, London, UK) at a density of 2 × 10^5 cells per well in 1000 μL of complete RPMI; the culture plates were seeded approximately 24 h before PDT. Cell treatment and irradiation was performed in accordance with methods previously described.
# (§5) Annexin V-FITC/PI staining and cell death analysis was performed at both 24- and 48 h time points following PDT (representative flow cytometry dot-plots from Annexin V-FITC/PI-stained cells in Supplementary Materials-Figure S2). Non-adherent cells were harvested through the removal of culture medium and adherent monolayers were trypsinized and returned to the removed media. Harvested cells were removed from media via centrifugation (5 min, 400× g) (VWR Mega Star, Leicestershire, UK) and resuspended in Annexin V Binding Buffer. Following a second centrifugation, Annexin V Binding Buffer was discarded, and cell pellets were resuspended in the residual volume. Cells were stained with Annexin V-FITC (5 μL) and PI (10 μL) and incubated at room temperature for 15 min protected from light. 200 µL of Annexin V Binding Buffer was added prior to immediate analysis using a BD FACSCalibur (BD Biosciences, Wokingham, UK) and data from 10,000 events was collected. Flow cytometry results were analyzed using FlowJo™ v10.8 Software (BD Life Sciences). Quadrants consisted of Viable (Annexin V-FITC^−/PI^−), early stage apoptotic (Annexin V-FITC^+/PI^−) and late-stage apoptotic/necrotic (Annexin V-FITC^+/PI^+) populations.
# MSTO-211H cells [7] = experiment: as above; format: cell-based, human; conditions: light; for EC50: read-out: EC50 (50% reduction in viable cell populations), PDT activity
# Experimental: as §4, §5
# [8] = Annexin V-FITC/PI cell death analysis by flow cytometry, NCI-H28; format: cell-based, human; conditions: human, NCI-H28 cells, read-out: viable cells
# Experimental: as §4, §5
# NCI-H28 cells [9] = experiment: as above; format: cell-based, human; conditions: light; for EC50: read-out: EC50 (50% reduction in viable cell populations), PDT activity
# Experimental: as §4, §5
# Met-5a cells = experiment: Annexin V-FITC/PI cell death analysis by flow cytometry, Met-5a; format: cell-based, human; conditions: for EC50: Homo sapiens, read-out: EC50 (50% reduction in viable cell populations), PDT activity
# Experimental: as §4, §5
# [10] = UV/vis absorbance spectroscopy in DMSO, water and 1 M HCl (stacking, aqueous solubility); format: physicochemical; conditions: absorption spectra in water vs DMSO and 1 M HCl
# Experimental: UV/vis absorbance spectroscopy in DMSO, water and 1 M HCl. For each of the porphyrins 5, 6, and 7, 5 mg, was dissolved in 30 µL of 1 M NaOH H this was diluted to 5 mL with distilled to give stock solutions of concentrations 0.926 mM, 0.88 mM and 0.77 mM, respectively. In a quartz 96 well plate, 20 µL was added to a well and diluted to a volume of 320 µL with either DMSO, water or 1 M HCl.
# MSTO-211H cells [11] = experiment: Cellular localization by high content fluorescence microscopy; format: cell-based, human; conditions: 24 h incubation
# Experimental: Cells were harvested in accordance with methods previously described and seeded into 24-well plates (Nunc, London, UK) at a density of 25,000 treated with porphyrin working solutions made up from the porphyrin PS stock solutions and incubated for 24 h. The cells were visualized using a Cytation 5 (Agilent Technologies, Cheadle, UK) high content microscopy platform at 20× magnification.
# [12] = Homo sapiens, 24 h, 24 h time point
# [13] = Homo sapiens, 48 h, 48 h time point
# [14] = Homo sapiens, NCI-H28, 24 h, NCI-H28, 24 h time point
# [15] = Homo sapiens, NCI-H28, 48 h, NCI-H28, 48 h time point
# [16] = 20 μg/mL, time point not stated
Structure (SMILES),"viability at 48 h, 5 μg/mL [1]",viability at 5 µg/mL (MSTO-211H cells [2]),"viability at 24 h, 5 μg/mL [5]","viability at 48 h, 5 μg/mL [5]",EC50 (MSTO-211H cells [7]; [12]),EC50 (MSTO-211H cells [7]; [13]),EC50 (NCI-H28 cells [9]; [14]),EC50 (NCI-H28 cells [9]; [15]),"EC50 (50% reduction in viable cell populations), PDT activity (NCI-H28 cells [9]; NCI-H28, 24 h time point)","EC50 (Met-5a cells; 24 h time point, light)","EC50 (Met-5a cells; 48 h time point, light)",also measured
O=C(O)CCCCOc1cccc(-c2c3nc(c(-c4cccc(OCCCCC(=O)O)c4)c4ccc([nH]4)c(-c4cccc(OCCCCC(=O)O)c4)c4nc(c(-c5cccc(OCCCCC(=O)O)c5)c5ccc2[nH]5)C=C4)C=C3)c1 [C5SHU],100%,22%,~28%,~11%,7.7 µg/mL,2.8 ± 1.5 µg/mL,7.8 µg/mL,6 ± 1 µg/mL,7.7 ± 1 µg/mL,> 20 µg/mL,5.1 ± 1 µg/mL,"viability at 48 h, 15 μg/mL ([1]; 15 μg/mL, read-out: dark toxicity (cell viability)): 30%; viability at 48 h, 20 μg/mL ([1]; 20 μg/mL, read-out: dark toxicity (cell viability)): 26%; viability at 48 h, 5 μg/mL [3]: 116%; viability at 5 µg/mL (NCI-H28 cells [4]): 16%; viability at 48 h, 15 μg/mL ([6]; 15 μg/mL): 63.6%; viability at 48 h, 20 μg/mL ([6]; 20 μg/mL): 46.1%; apoptotic cell population (MSTO-211H cells [7]; 10 μg/mL, 24 h): 49%; necrotic cell population (MSTO-211H cells [7]; 10 μg/mL, 24 h): 34%; EC50 (50% reduction in viable cell populations), PDT activity (MSTO-211H cells [7]; 24 h time point): 7.8 ± 3 µg/mL; viability ([8]; NCI-H28, dark, unchanged with porphyrin dose): ~95%; apoptotic cell population (NCI-H28 cells [9]; NCI-H28, 10 μg/mL, 24 h): 16%; necrotic cell population (NCI-H28 cells [9]; NCI-H28, 10 μg/mL, 24 h): 53%; cell death (Met-5a cells; 24 h, all dose concentrations): no significant cell death; dark toxicity (Met-5a cells; 24 h, all dose concentrations): negligible dark toxicity; dark toxicity (Met-5a cells; 48 h): Negligible dark toxicity; predominant mode of cell death (Met-5a cells; 48 h, light): necrosis; stacking in aqueous solutions [10]: least evidence of stacking"
O=C(O)CCCCCOc1cccc(-c2c3nc(c(-c4cccc(OCCCCCC(=O)O)c4)c4ccc([nH]4)c(-c4cccc(OCCCCCC(=O)O)c4)c4nc(c(-c5cccc(OCCCCCC(=O)O)c5)c5ccc2[nH]5)C=C4)C=C3)c1 [C6SHU],119%,38%,–,–,14 µg/mL,14 ± 4 µg/mL,> 20 µg/mL,> 20 µg/mL,–,> 20 µg/mL,> 20 µg/mL,"apoptotic cell population (MSTO-211H cells [7]; [16]): 23%; necrotic cell population (MSTO-211H cells [7]; [16]): 50%; viability at 20 µg/mL (MSTO-211H cells [7]; Homo sapiens, 20 μg/mL, time point not stated, read-out: viable cell population): 20%; IC50 (NCI-H28 cells [9]; Homo sapiens, NCI-H28, NCI-28 as printed, time point not stated, read-out: IC50, PDT effect): > 20 µg/mL; viability at 20 µg/mL (NCI-H28 cells [9]; Homo sapiens, NCI-H28, 20 μg/mL, time point not stated, read-out: viable cells): 59%"
O=C(O)CCCCCCOc1cccc(-c2c3nc(c(-c4cccc(OCCCCCCC(=O)O)c4)c4ccc([nH]4)c(-c4cccc(OCCCCCCC(=O)O)c4)c4nc(c(-c5cccc(OCCCCCCC(=O)O)c5)c5ccc2[nH]5)C=C4)C=C3)c1 [C7SHU],–,–,66%,30%,9.6 ± 3 µg/mL,7.7 ± 2 µg/mL,> 20 µg/mL,> 20 µg/mL,>20 ^a μg/mL,> 20 µg/mL,> 20 µg/mL,"viability at 48 h, 10 μg/mL ([8]; NCI-H28, 10 μg/mL, 48 h): 75%; cellular localization (MSTO-211H cells [11]): localize in the cytosolic region"
